This is an account of results in patent publication US5395838A, “6-substituted quinazolines processing anti-tumor activity” (Imperial Chemical Industries PLC, priority 1988, dated 1995).

Like-named read-outs stand apart in the source and are kept apart here.

As a reminder, the IC50 is the concentration that inhibits the measured activity by half.

For data set [1] the following is noted: particularly in relation to the liver and kidney; cited from earlier work.
Data set [2] relates to human breast, ovarian and liver cancer. To be noted: clinical trials; cited from earlier work.
In data set [3] the target is T1, thymidylate synthase (Mus musculus, UniProt P07607).
T1 construct: obtained in partially purified form from L1210 mouse leukaemia cells; endogenous in cells; host or cells: L1210 mouse leukaemia cells (enzyme partially purified)
T1 sequence (P07607 whole entry): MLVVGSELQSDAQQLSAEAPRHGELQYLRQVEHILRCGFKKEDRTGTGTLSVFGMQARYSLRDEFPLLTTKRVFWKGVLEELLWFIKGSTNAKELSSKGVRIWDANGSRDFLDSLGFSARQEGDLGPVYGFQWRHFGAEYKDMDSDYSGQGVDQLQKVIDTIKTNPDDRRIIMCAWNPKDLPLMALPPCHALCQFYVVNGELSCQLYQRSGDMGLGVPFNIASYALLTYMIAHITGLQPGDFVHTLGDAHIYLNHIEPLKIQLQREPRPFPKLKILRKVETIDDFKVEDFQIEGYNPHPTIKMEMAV
The data set is described as follows: Test (a): in vitro inhibition of the enzyme thymidylate synthase (partially purified from L1210 mouse leukaemia cells). It is filed as biochemical. From the text: (a) An in vitro assay which determines the ability of a test compound to inhibit the enzyme thymidylate synthase.

For data set [4], the system named is L1210. The data set is described as follows: Test (b): inhibition of the growth of the leukaemia cell line L1210 in cell culture. As to conditions: Mus musculus, read-out: IC50 against the L1210 cell line [Test (b)]. It is filed as cell-based. From the text:
(b) An assay which determines the ability of a test compound to inhibit the growth of the leukaemia cell line L1210 in cell culture. The test is similar to that described in UK Patent Specification No. 2065653B;

As for `C#CCN(Cc1ccc2nc(N)[nH]c(=O)c2c1)c1ccc(C(=O)N[C@@H](CCC(=O)O)C(=O)O)cc1` [CB3717], the “symptoms of toxicity in humans” value in data set [1] is “shows symptoms of toxicity in humans, particularly in relation to the liver and kidney”. Moreover, the “activity against human breast, ovarian and liver cancer” value in data set [2] is “promising activity against human breast, ovarian and liver cancer”.
Regarding `C#CCN(Cc1ccc2nc(C)[nH]c(=O)c2c1)c1ccc(C(=O)NCc2ccccc2[N+](=O)[O-])cc1` [p-[N-(3,4-dihydro-2-methyl-4-oxoquinazolin-6-ylmethyl)-N-(prop-2-ynyl)amino]-N-(2-nitrobenzyl)benzamide], the IC50 was found to be 0.05 µM in data set [3] and 1.8 µM in data set [4].
Take `C#CCN(Cc1ccc2nc(C)nc(O)c2c1)c1ccc(C(=O)NCc2ccccn2)cc1` [p-[N-(3,4-dihydro-2-methyl-4-oxoquinazolin-6-ylmethyl)-N-(prop-2-ynyl)amino]-N-(2-pyridylmethyl)benzamide]: the IC50 in data set [3] (enzyme from L1210 mouse leukaemia cells, read-out: IC50 against thymidylate synthase [Test (a)]) stood at 0.5 µM; in data set [4] it was 3.9 µM.
